The record followed here is patent publication US10501805B2, “Methods for determining responsiveness to MEK/ERK inhibitors” (CROWN BIOSCIENCE, INC. (TAICANG), priority 2014, dated 2019).

Experiment in all cases: CellTiter-Glo cell viability, IC50 determination
Common to all, as to type: cell-based

One experiment relates to HCT-8. The following applies: Homo sapiens, 72 h; HCT-8 cell line; 3-day CTG assay; read-out: Absolute IC50. On the procedure:
(§1) All the cells will be cultured in the media supplemented with 10% FBS except for which are marked specially, in the temperature of 37° C., 5% CO2 and 95% humidity.
(§2) Cell viability is assayed by using CellTiter-Glo® Luminescent Cell Viability Assay Kit (Cat. No.: G7572, Promega. Store at −20° C.). To prepare the CellTiter_Glo Reagent, the CellTiter-Glo Buffer was thawed and equilibrated to room temperature prior to use. For convenience the CellTiter-Glo Buffer may be thawed and stored at room temperature for up to 48 hours prior to use. The lyophilized CellTiter-Glo Substrate is equilibrated to room temperature prior to use. The appropriate volume (100 ml) of CellTiter-Glo Buffer is transferred into the amber bottle containing CellTiter-Glo Substrate to reconstitute the lyophilized enzyme/substrate mixture, which forms the CellTiter-Glo Reagent. In certain cases, the entire liquid volume of the CellTiter-Glo Buffer bottle may be added to the CellTiter-Glo Substrate vial. Mix by gently vortexing, swirling or by inverting the contents to obtain a homogeneous solution. The CellTiter-Glo Substrate should go into solution easily in less than one minute.
(§3) The day before the experiment (Day −1), cells were dissociated during the logarithmic growth period with Cell Disassociation Buffer (Gibco 13151-014) and mixed with appropriate cell media and centrifuge at 1000 rpm for 3 minutes. The cells were re-suspended and counted using Countstar before adjusting cell concentrations to optimized density (i.e. 4.44×10^4 cells/ml) with respective culture medium listed in Table 1 for 3-day CTG assay (The cell density was optimized before actual study; cell density used in the test may vary for different cell lines). 90 μl cell suspensions were added to two 96-well plates (plates A and B) with the final cell density of 4×10^3 cells/well for 3-day CTG assay (the cell density was optimized before actual study; cell density used in the test may vary for different cell lines). The plate A and B group were incubated for overnight in humidified incubator at 37° C. with 5% CO2.
(§4) On Day 0, for plate A group, 10 μl culture medium was added to each well for T0 reading. CellTiter-Glo® Reagent was added at equal volume of cell culture medium present in each well (e.g., add 100 μl of reagent to 100 μl of medium containing cells for a 96-well plate). Contents were mixed for 2 minutes on an orbital shaker to facilitate cell lysis. The plate was allowed to incubate at room temperature for 10 minutes to stabilize luminescent signal. Backseal black sticker was added to the bottom of each plate. Luminescence was recorded using EnVision Multi Label Reader. This formed the basis for T0 value.
(§5) On Day 0, the test articles and positive controls were dissolved at the concentration indicated at Test Article Dilution map. 100× solution in PBS was prepared and then diluted with appropriate culture media (1:10) into 10×working solutions. 10 μl (10×) drug solutions were dispensed in each well (triplicate for each drug concentration) of the plate B group according to plate inoculation map. The test plates were incubated for […] in the humidified incubator at 37° with 5% CO2.
(§6) On Day 3, CellTiter-Glo® Reagent was added at equal volume of cell culture medium present in each well (e.g., add 100 μl of reagent to 100 μl of medium containing cells for a 96-well plate). Contents were mixed for 2 minutes on an orbital shaker to induce cell lysis. The plate was allowed to incubate at room temperature for 10 minutes to stabilize luminescent signal. Backseal black sticker was placed to the bottom of each plate. Luminescence was recorded using EnVision Multi Label Reader.
(§7) In order to calculate IC50s, a dose-response curve was fitted using a nonlinear regression model with a sigmoidal dose response. The formula for calculating surviving rate was shown below; Absolute IC50 is calculated where Y axis set at 50% using GraphPad Prism 5.0. Software. […]

Another experiment has as its system BxPc-3. The following applies: Homo sapiens, 72 h; BxPc-3 cell line; 3-day CTG assay; read-out: Absolute IC50. On the procedure:
as §1, §2, §3, §4, §5, §6, §7

In another experiment the test system is RKO. To be noted: Homo sapiens, 72 h; RKO cell line; 3-day CTG assay; read-out: Absolute IC50. Here is the method: as §1, §2, §3, §4, §5, §6, §7
In a further experiment the test system is KM12L4. The following applies: KM 12L4, 72 h; KM12L4 cell line; 3-day CTG assay; read-out: Absolute IC50. On the procedure:
as §1, §2, §3, §4, §5, §6, §7

A further experiment has as its system Sk-Hep-1. The following applies: Homo sapiens, SK-HEP1, 72 h; Sk-Hep-1 cell line; 3-day CTG assay; read-out: Absolute IC50. Here is the method: as §1, §2, §3, §4, §5, §6, §7
A further experiment concerns MIAPaCa2. To be noted: Homo sapiens, MIA PaCa-2, 72 h; MIAPaCa2 cell line; 3-day CTG assay; read-out: Absolute IC50. On the procedure:
as §1, §2, §3, §4, §5, §6, §7

In the next experiment the test system is LoVo. The following applies: Homo sapiens, 72 h; LoVo cell line; 3-day CTG assay; read-out: Absolute IC50. On the procedure:
as §1, §2, §3, §4, §5, §6, §7

The test system of the next experiment is PL45. The following applies: 72 h; PL45 cell line; 3-day CTG assay; read-out: Absolute IC50. On the procedure:
as §1, §2, §3, §4, §5, §6, §7

A further experiment deals with Sk-Mel-5. The following applies: Homo sapiens, 72 h; Sk-Mel-5 cell line; 3-day CTG assay; read-out: Absolute IC50. Here is the method: as §1, §2, §3, §4, §5, §6, §7
For the next experiment, the system named is NCI-H1666. The following applies: Homo sapiens, 72 h; NCI-H1666 cell line; 3-day CTG assay; read-out: Absolute IC50. On the procedure: as §1, §2, §3, §4, §5, §6, §7
For a further experiment, the system named is KYSE150. To be noted: Homo sapiens, KYSE-150, 72 h; KYSE150 cell line; 3-day CTG assay; read-out: Absolute IC50. On the procedure: as §1, §2, §3, §4, §5, §6, §7
For a further experiment, the system named is Hep3B. The following applies: Homo sapiens, 72 h; Hep3B cell line; 3-day CTG assay; read-out: Absolute IC50. Here is the method:
as §1, §2, §3, §4, §5, §6, §7

A further experiment has as its system NCI-H2009. The following applies: Homo sapiens, 72 h; NCI-H2009 cell line; 3-day CTG assay; read-out: Absolute IC50. On the procedure: as §1, §2, §3, §4, §5, §6, §7
For a further experiment, the system named is PANC-1. To be noted: Homo sapiens, 72 h; PANC-1 cell line; 3-day CTG assay; read-out: Absolute IC50. Here is the method:
as §1, §2, §3, §4, §5, §6, §7

Structures are written as SMILES.

Take `CC(=O)Nc1cccc(-n2c(=O)n(C3CC3)c(=O)c3c(Nc4ccc(I)cc4F)n(C)c(=O)c(C)c32)c1` [Trametinib, N-(3-{3-Cyclopropyl-5-[(2-fluoro-4-iodophenyl)amino]-6,8-dimethyl-2,4,7-trioxo-3,4,6,7-tetrahydropyrido[4,3-d]pyrimidin-1(2H)-yl}phenyl)acetamide]: the IC50 in the experiment on HCT-8 is 50 nM; in the experiment with BxPc-3, 30 nM; with RKO, 6700 nM; in the experiment on KM12L4, 10 nM; in the experiment on Sk-Hep-1, 29100 nM; in the experiment on MIAPaCa2, 30 nM. For the same compound, the IC50 was 110 nM in the experiment on LoVo; 120 nM in the experiment with PL45; 10 nM with Sk-Mel-5; 130 nM in the experiment with NCI-H1666; 5280 nM in the experiment on KYSE150; 50 nM in the experiment on Hep3B. The IC50 amounted to 410 nM in the experiment with NCI-H2009 and 330000 nM in the experiment on PANC-1.
On to `O=C(Nc1ccc2[nH]nc(-c3ccncc3)c2c1)[C@@H]1CCN(CC(=O)N2CCN(c3ccc(-c4ncccn4)cc3)CC2)C1` [SCH772984, (R)-1-(2-oxo-2-(4-(4-(pyrimidin-2-yl)phenyl)piperazin-1-yl)ethyl)-N-(3-(pyridin-4-yl)-1H-indazol-5-yl)pyrrolidine-3-carboxamide], for which the IC50 in the experiment on HCT-8 came to 1270 nM; in the experiment on BxPc-3 it was 320 nM; in the experiment on RKO, 17500 nM; with KM12L4 it was 360 nM; with Sk-Hep-1, 5290 nM; in the experiment with MIAPaCa2, 210 nM. The IC50 in the experiment on LoVo was 410 nM; in the experiment on PL45, 660 nM; in the experiment on Sk-Mel-5, 200 nM; with NCI-H1666, 920 nM; in the experiment with KYSE150, 1720 nM; in the experiment with Hep3B, 250 nM. Besides, the half-inhibitory concentration (IC50) stood at 4360 nM in the experiment on NCI-H2009 and 64300 nM in the experiment with PANC-1.

One may read the IC50 as the concentration at which inhibition is half-maximal.
